Experimental data as given in patent publication US20060288450A1, “Plant N-acylethanolamine binding proteins” (Samuel Roberts Noble Foundation, priority 2004, published 2006).

Key:
[1] = test system: membrane-associated NAE-binding activities; conditions: cited from earlier work; for challenge of [3H]NAE 14:0 binding by CB receptor antagonist: plant membranes
[2] = test system: NAE binding protein (At1g26440); test: [3H]NAE 14:0 radioligand binding to recombinant At1g26440 protein expressed in E. coli; parameters: species or system Arabidopsis thaliana
Protocol: FIG. 4 Full length cDNAs synthesized through RT-PCR on Arabidopsis total RNA using gene specific primers to At1g26440 were cloned into pTrc His2 expression vector and the recombinant protein over expressed in E. coli Top10 competent cells (Invitrogen, Cat. No. K4400-01 and K4400-40). Positive clones selected on amp-glucose agar plates were analyzed for producing NAE 14:0 binding protein by using [^3H]NAE 14:0 binding assay (Tripathy et al., 2003). Bacterial lysate (L) prepared from pelleted positive clones induced with IPTG for recombinant protein production was used as the protein source. T10-1, T-10-2, T10-3: Positive clones carrying A. thaliana NAE-binding protein (At1g26440); T10-4: Negative clone carrying the gene sequence in reverse orientation; T10-0: Control Top10 cells. Binding assay was performed on cell lysate (L) and the affinity purified (ProBond purification system, Invitrogen) recombinant protein (P) fraction. Histograms represent binding activity (from two studies with four replicates each).
FIG. 5 Saturation binding of [^3H]NAE 14:0 to a candidate NAE binding protein (At1g26440) expressed in E. coli Top10 cell lysate. The candidate NAE binding protein was a full-length, in-frame cDNA. […]
(§1) [^3H]NAE 14:0 radioligand was synthesized from [9,10-^3H(N)]myristic acid (PerkinElmer Life Sciences, Boston) in a modified two step reaction (Hillard et al., 1995; Devane et al., 1992). […] The [^3H]NAE 14:0 formed was further purified and quantified by separating on thin layer chromatography (TLC) and radiometric scanning respectively (Tripathy et al., 2003).
Binding activity of [^3H]NAE 14:0 was carried out with DDM-solubilized microsomes from Arabidopsis (ecotype, columbia) leaves (Tripathy et al., 2003b) or recombinant protein produced in E. coli and solubilized in DDM. […] Unbound ligands were washed off with ice cold binding buffer (75 mM potassium-phosphate buffer, pH 7.2, 300 mM sucrose, 7.5 mM KCl, 0.75 mM EDTA, 0.75 mM EGTA, 0.5 mM ascorbate, 5 mM DTT, and 1.5% BSA) under vacuum and frozen filters were excised into scintillation cocktail for radioactivity estimation.

[3] = test system: Arabidopsis microsomal protein; test: [3H]NAE 14:0 radioligand binding to Arabidopsis leaf microsomes; parameters: species or system Arabidopsis thaliana; conditions: 5 nM SR144528, [3H]NAE 14:0 50 nM
Protocol: FIG. 1. Analysis of specific binding of [^3H]NAE 14:0 to DDM solubilized (0.2 mM) microsomes (25 μg of protein) isolated from A. thaliana (ecotype Columbia) leaves (150,000×g) with a concentration ranging from 10 to 80 nM. Specific binding was determined by subtracting nonspecific binding (binding in the presence of 1,500× nonradioactive NAE 14:0) values from total radioligand binding values in duplicate assays. Binding affinity and Bmax of [^3H]NAE 14:0 was estimated by fitting the saturation binding data to nonlinear regression analysis for a one-site binding equation using Prism 3.0, Graphpad software, San Diego.
FIG. 7 Microsomes from A. thaliana leaves and affinity purified (P) protein from T10-1 cell lysate were incubated with [^3H]NAE 14:0 (50 nM) in the presence and absence of CB receptor antagonist SR144528 (5 nM) to compare the influence on [3H]NAE binding. Values represent means of triplicate assays from an individual experiment reproduced twice.
as §1, with “1992). In step one, acylchloride is prepared from [3 H]” for “1992).”, “2003). […]” for “2003).”

[4] = test system: defense gene (Phenylalanine-ammonia lyase) expression; conditions: coadministration, leaves; cited from earlier work

Compound	challenge of [3H]NAE 14:0 binding by CB receptor antagonist [1]	affinity of recombinant protein for NAE 14:0 (saturation binding) ([2]; recombinant At1g26440 expressed in E. coli, DDM solubilized)	binding activity of [3H]NAE 14:0 (affinity) ([1]; membrane-associated, saturable, in lower nanomolar range)	effect on NAE14:0 binding ([2]; 5 nM SR144528, [3H]NAE 14:0 50 nM, recombinant At1g26440 gene product)	effect on NAE specific binding ([2]; higher concentrations of SR144528 (above 5 nM), preparation not specified)	effect on NAE14:0 binding [3]	effect on NAE-regulated defense gene expression [4]
Cc1c(C(=O)NN2CCOCC2)nn(-c2ccc(Cl)cc2Cl)c1-c1ccc(I)cc1 [AM 281]	potently challenged						
CCCCCCCCCCCCCC(=O)NCCO [NAE 14:0]		high affinity	high affinity				
SR144528	potently challenged			diminished	eliminated	diminished	blocked
